How the values were obtained:
[1] = tested on: transient middle cerebral artery occlusion (MCAO) in SD rats; test: Transient (90 min.) middle cerebral artery occlusion (MCAO) in SD rats; type: in vivo, rat; settings: 90 min MCAO, 25 mg/kg intravenous bolus at occlusion, then 50 mg/kg subcutaneous repeatedly, histology at 3 days, FIG. 2
Excerpt: 1. Transient focal cerebral ischemia: A rodent model of transient middle cerebral artery occlusion (MCA) occlusion was used to determine the effect of a representative GSK3 inhibitor compound of the invention, 6-[(2-{[6-(2,4-dichlorophenyl)-5-imidazolyl-2-pyridyl]amino}ethyl)amino]pyridine-3-carbonitrile (CT 99025) in the inhibition of ischemic damage due to stroke. Ischemia was induced using an occluding intraluminal suture model (M. A. Yenari et al., “Time-course and treatment response with SNX-111, an N-type calcium channel blocker, in a rodent model of focal cerebral ischemia using diffusion-weighted MRI,” Brain Res 739:3645 (1996)). Animals were anesthetized with 3% halothane (1-2% maintenance) via face mask. Depth of anesthesia was monitored every 15 minutes by checking toe pinch, and the maintenance halothane levels were adjusted accordingly. […] During the surgical procedure, the following parameters were monitored and maintained in the normal physiological range: mean arterial blood pressure (MABP, measured via a femoral artery catheter), respiratory rate, rectal temperature, heart rate, arterial blood gases, blood glucose, and hematocrit. […]
3. […] Regions without staining were delineated using a computer assisted image analysis program (MCID, St. Catherine's, Ottawa), and expressed as the percent injury of the ipsilateral hemisphere. […]

[2] = tested on: GSK3; test: Cell-based glycogen synthase assay for GSK3 inhibitory activity (CHO-HIRC cells); settings: read-out: EC50 (glycogen synthase activity stimulated to 50% of the maximal level), 20 minutes incubation
Protocol: Likewise, the ability of GSK3 inhibitor compounds to potentiate insulin signaling by activating glycogen synthase can be readily ascertained using a cell-based glycogen synthase activity assay. This assay employs cells that respond to insulin stimulation by increasing glycogen synthase activity, such as the CHO-HIRC cell line, which overexpresses wild-type insulin receptor (˜100,000 binding sites/cell). […] The assay can be carried out by incubating serum-starved CHO-HIRC cells in the presence of various concentrations of compounds of the present invention in the medium, followed by cell lysis at the end of the incubation period. […] The concentration of candidate GSK3 inhibitor that increased glycogen synthase activity to half of its maximal level (i.e., the EC50) can be calculated by fitting a four parameter sigmoidal curve using routine curve fitting methods that are well known to those having ordinary skill in the art.
CHO-HIRC cells are maintained in 10 cm tissue culture plates in Ham's F12 medium/10% dialyzed fetal bovine serum. Cells from a confluent 10 cm plate are harvested and divided into the 6 wells of a 6-well tissue culture plate to a final volume of 2 ml of medium. The cells are left to grow at 37° C. for 24 hours. The cells are then washed three times in Ham's F12 medium containing no fetal bovine serum, and finally the cells are left for a further 24 hours at 37° C. in 2 ml of the serum-free medium.
At the end of this time, 20 μl of compound dissolved in DMSO is added to each well and incubated at 37° C. After 20 minutes the medium is removed and the cells are washed once in PBS at room temperature and then rapidly frozen in the plates in liquid nitrogen. […] Cells are scraped from the plates and frozen in Eppendorf tubes on dry ice. Lysates are then thawed and refrozen on dry ice.
After rethawing, lysates are spun at 14,000 g for 15 minutes. The supernatants are then removed and stored on ice. […] Reactions are incubated at 30° C. for 30 minutes and then spotted onto a 2 cm square 31ET chromatograph paper (Whatman).
Filters are added to 5 ml of liquid scintillant and counted in a liquid scintillation counter. The percentage of the total glycogen synthase that is active in any lysate is expressed as 100× (cpm minus glucose-6-phosphate)/(cpm plus glucose-6-phosphate). Such values are determined in duplicate for 5 different concentrations of compound and for DMSO alone, and the values are then plotted against the logarithm of the concentration. The concentration of compound which stimulates glycogen synthase activity to 50% of the maximal level is determined by fitting a sigmoidal curve to the plotted data. The maximal level is defined as that level to which glycogen synthase activity tends asymtotically as the concentration of test compound increases substantially beyond the EC50.

[3] = Blood brain barrier penetration / plasma drug levels after intravenous dosing in CD rats; type: in vivo, rat; settings: 10 mg/kg intravenously; for Brain (at end of study) drug level: brains isolated at 150 minutes post administration; for AUC / Cmax / Tmax / half-life / Vd / concentration at 0 min / concentration at 7 min / concentration at 20 min / concentration at 40 min / concentration at 70 min / concentration at 100 min / concentration at 150 min: rat, plasma, iv; for Vd: read-out: Vss
Protocol: GSK3 inhibitor blood brain barrier penetration may generally be measured by administering a GSK3 inhibitor compound formulated in 15% captisol/20 mM sodium citrate to a final dose of 10 mg/kg intravenously through a jugular catheter into 250 g CD rats. At 150 minutes post administration brains from the rats were isolated and fast frozen. GSK3 inhibitor plasma levels in the isolated material were established using standard techniques.

[4] = tested on: rat hippocampi cells; test: GSK3 inhibitor protection of rat hippocampi cells from glutamate induced damage (Trypan Blue count); type: cell-based; parameters: Cells Surviving (%) Without Glutamate (control): concentration or dose not given beside the values; settings: rat hippocampal neurons, average of 1 to 4 replications; for Cells Surviving (%) With Glutamate: 200 μM glutamic acid for 5 minutes, counted 20 to 24 hours later; for Cells Surviving (%) Without Glutamate (control): not exposed to glutamic acid
Protocol: Hippocampi were dissected from embryonic day 18-19 rats. The tissue was collected in Hibernate™ media (Gibco BRL) and minced into 1 mm pieces. The tissue was dissociated using the Papain Dissociation System (Worthington Biochemical Corporation). Following isolation the cells were suspended in serum-free media composed of Neurobasal™ (Gibco BRL), 2% B27 supplement (Gibco BRL), L-glutamine and antibiotics. Cells were plated in 12 well plates tissue culture dishes coated with poly-L-lysine at a concentration of 7.5×10^4 cells per well. Following 10-14 days at 37° C. in 5% CO2, the GSK3 inhibitor compounds set forth below were added. Four to eight hours following compound addition, the conditioned media was removed from the cells and the cultures were stored at 37° C. […] The cultures were then either exposed for 5-minutes at room temperature to 200 μM glutamic acid in the same HBSS, or not exposed to glutamic acid as a control. Following exposure, the cultures were rinsed three times with the buffer and then returned to their original conditioned media containing the GSK3 inhibitor compounds. Twenty to 24 hours following glutamic acid exposure, the cultures were rinsed in HBSS and exposed for 10 minutes to Trypan Blue. This dye is taken up by dead cells. The cultures were rinsed then fixed for 30 minutes in 4% paraformaldehyde. The number of live and dead (blue) large neurons are counted (at least 200 cells from each well) by phase contrast microscopy and photographed, and the percentage of surviving cells was determined. […] The results are shown in the following Table 2 as the average of 1 to 4 replications: […]

Compound	ischemic area (percent injury of the ipsilateral hemisphere) versus vehicle control [1]	EC50 [2] [nM]	CL [3]	Brain (at end of study) drug level [3]	AUC [3] [ng·h/mL]	Cmax [3] [ng/mL]	Tmax [3] [h]	half-life [3] [min]	Vd [3] [L/kg]	concentration at 0 min [3] [ng/mL]	concentration at 7 min [3] [ng/mL]	concentration at 20 min [3] [ng/mL]	concentration at 40 min [3] [ng/mL]	concentration at 70 min [3] [ng/mL]	concentration at 100 min [3] [ng/mL]	concentration at 150 min [3] [ng/mL]	Cells Surviving (%) With Glutamate [4] [%]	Cells Surviving (%) Without Glutamate (control) [4] [%]
6-[(2-{[6-(2,4-dichlorophenyl)-5-imidazolyl-2-pyridyl]amino}ethyl)amino]pyridine-3-carbonitrile [CT 99025]	substantially reduced																	
Cc1ccc(-c2nc(NCCNc3ccc([N+](=O)[O-])c(N)n3)ncc2-c2ncc[nH]2)c(Br)c1 [G]		53	52 [ml/min]/kg	<LOQ	3180	4600	~0	31	2.3	< 20	4050	3200	1330	796	414	113	65	94
N#Cc1ccc(NCCNc2ncc(-c3ccncc3)c(-c3ccc(Cl)cc3Cl)n2)nc1 [I]		184	114 [ml/min]/kg	<LOQ	145	1200	~0	42	6.8	< 20	1190	1160	614	440	358	106	56	94
CNCC(=O)Nc1cnc(NCCNc2ccc([N+](=O)[O-])c(N)n2)nc1-c1ccc(Cl)cc1Cl [P]		701															55	91
Nc1nc(NCCNc2ncc(-n3ccccc3=O)c(-c3ccc(Cl)cc3Cl)n2)ccc1[N+](=O)[O-] [R]		14															61	92
